Source: paper PMC5216119, “An allosteric conduit facilitates dynamic multisite substrate recognition by the SCF^Cdc4 ubiquitin ligase” (Nature Communications, 2017)

Legend:
Cdc4^WD40 [1] = target: T1, Cdc4^WD40 (Saccharomyces cerevisiae, UniProt P07834); experiment: Isothermal titration calorimetry (ITC) with Cdc4^WD40; parameters: species or system yeast; conditions: 20 °C, cell 30 μM Cdc4^WD40, syringe 100 μM pSic1 or 200 μM SCF-I2, 50 mM Na2HPO4 pH 7.2, 150 mM NaCl, 2 mM β-mercaptoethanol, single-site model, repeated twice, read-out: Kd value for binding Cdc4^WD40 (ITC)
T1 sequence (P07834 367-744): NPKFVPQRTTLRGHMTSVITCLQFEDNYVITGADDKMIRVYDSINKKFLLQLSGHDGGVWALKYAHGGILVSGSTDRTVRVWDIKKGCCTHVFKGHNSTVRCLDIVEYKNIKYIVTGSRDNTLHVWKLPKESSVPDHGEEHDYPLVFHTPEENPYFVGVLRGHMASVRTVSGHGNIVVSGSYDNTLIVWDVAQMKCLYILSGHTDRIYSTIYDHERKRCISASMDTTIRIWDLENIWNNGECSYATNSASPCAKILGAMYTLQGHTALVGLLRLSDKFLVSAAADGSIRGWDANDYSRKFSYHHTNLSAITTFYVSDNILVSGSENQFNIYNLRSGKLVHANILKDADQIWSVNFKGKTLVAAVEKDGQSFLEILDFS
Text: We determined the effects of substrate binding on the isolated WD40 domain of Cdc4 (Cdc4^WD40), which is more amenable to NMR due to its size (40 kDa) than the minimal Cdc4-Skp1 complex (∼70 kDa). The N-terminal targeting region of Sic1 (residues 1-90, called Sic1^1-90), which contains 7 of the 9 Sic1 CPD sites and is sufficient for Cdc4 binding, was phosphorylated to completion by Cln2-Cdc28-Cks1 kinase (called pSic1). We used isothermal titration calorimetry (ITC) to determine the affinity of Cdc4^WD40 for pSic1 and SCF-I2 (Supplementary Fig. 1a–c). […] The Kd value for SCF-I2 binding Cdc4^WD40 was 0.6±0.02 μM, concordant with the ∼2 μM Ki value determined for SCF-I2-Cdc4-Skp1 by a fluorescence polarization competition assay.
ITC experiments were performed using VP-ITC and iTC200 microcalorimeters (MicroCal Inc., Northampton, MA) at 20 °C with the sample cell containing 30 μM Cdc4^WD40 and the syringe loaded with 100 μM pSic1 or 200 μM SCF-I2. The samples were dialysed in buffer containing 50 mM Na2HPO4, pH 7.2, 150 mM NaCl, 2 mM β-mercaptoethanol. Runs were performed using 13–20 injections at an interval of 120 s and each binding experiment was repeated twice. Using the Origin software provided by MicroCal Inc., heat associated with each injection was integrated and thermodynamic parameters were extracted by fitting the data to a single-site binding model.

Skp1-Cdc4 complex = Skp1-Cdc4 complex (Saccharomyces cerevisiae, UniProt P07834+P52286); experiment: Fluorescence polarization inhibition by SCF-I2 of Ash1 peptide binding to Skp1-Cdc4; parameters: species or system yeast; conditions: compared with Ash1^18pT286/pT290 or Ash1^18pT286/pT290/pS294 peptides
Chain of Skp1-Cdc4 complex (P07834 whole entry): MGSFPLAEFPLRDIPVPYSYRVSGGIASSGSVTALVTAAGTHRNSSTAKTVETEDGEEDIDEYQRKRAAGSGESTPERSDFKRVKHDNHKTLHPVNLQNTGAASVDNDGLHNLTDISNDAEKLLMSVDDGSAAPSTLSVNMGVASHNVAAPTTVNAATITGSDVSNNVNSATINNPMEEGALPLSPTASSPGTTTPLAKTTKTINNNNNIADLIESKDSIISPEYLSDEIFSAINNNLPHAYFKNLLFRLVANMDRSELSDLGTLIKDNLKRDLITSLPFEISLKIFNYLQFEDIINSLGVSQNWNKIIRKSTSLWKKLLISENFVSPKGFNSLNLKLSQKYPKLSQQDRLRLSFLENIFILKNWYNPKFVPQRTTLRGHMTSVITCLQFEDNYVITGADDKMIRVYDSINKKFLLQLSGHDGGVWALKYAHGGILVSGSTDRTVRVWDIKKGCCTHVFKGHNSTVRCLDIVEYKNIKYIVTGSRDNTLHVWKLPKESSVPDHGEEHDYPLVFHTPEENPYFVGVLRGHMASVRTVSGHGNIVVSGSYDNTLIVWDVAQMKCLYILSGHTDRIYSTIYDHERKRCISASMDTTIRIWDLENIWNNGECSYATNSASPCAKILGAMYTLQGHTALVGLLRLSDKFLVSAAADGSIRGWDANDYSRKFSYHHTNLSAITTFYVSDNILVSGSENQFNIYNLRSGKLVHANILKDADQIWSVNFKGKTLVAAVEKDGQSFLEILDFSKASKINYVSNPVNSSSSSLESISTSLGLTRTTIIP
Chain of Skp1-Cdc4 complex (P52286 whole entry partner): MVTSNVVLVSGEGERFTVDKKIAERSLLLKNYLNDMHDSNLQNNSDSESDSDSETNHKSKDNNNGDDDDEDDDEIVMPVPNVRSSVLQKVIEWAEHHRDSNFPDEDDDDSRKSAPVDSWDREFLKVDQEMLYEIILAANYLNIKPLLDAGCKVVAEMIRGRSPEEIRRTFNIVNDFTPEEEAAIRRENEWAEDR
Text: (f) Fluorescence polarization of the fluorescein-labelled Ash1 peptides (circle, pT286/pT290/pS294, square, pT286/pT290, triangle, pT290/pS294, inverted triangle doubly phosphorylated CycE peptide) in the presence of increasing concentrations of the recombinant Skp1-Cdc4 complex (mP, millipolarization unit). (g) Fluorescence polarization of the fluorescein-labelled Ash1 peptides (circle, pT286/pT290/pS294, square, pT286/pT290, triangle, pT290/pS294, inverted triangle, doubly phosphorylated CycE peptide) in the presence of increasing concentrations of the SCF-I2 inhibitor.
Fluorescence polarization assays containing 0.21 μM Skp1-Cdc4 complex and 10 nM fluorescently labelled cyclin E-derived or Ash1-derived phosphopeptides in 10 mM HEPES (pH 7.5), 40 mM NaCl, 0.1 mg ml^−1 BSA and 1 mM DTT in a final volume of 23.5 μl per well were performed on an Analyst HT plate reader (Molecular Devices Corp., Sunnyvale CA).

Cdc4-Skp1 = conditions: read-out: Ki value for SCF-I2-Cdc4-Skp1 by fluorescence polarization competition assay; cited from earlier work
Cdc4^WD40 [2] = target: T1, Cdc4^WD40; conditions: compared to a singly phosphorylated high-affinity CPD of similar affinity for Cdc4; cited from earlier work
Text: The phenomenon of allostery, whereby ligand binding at one site alters interactions at a physically distant site, allows for complex control of protein function. […] SCF-I2 elicits this allosteric effect through structural changes that occlude the P−2 region of the CPD pocket.

O=C(O)c1ccc2ccccc2c1-c1c(C(=O)O)ccc2ccccc12 [SCF-I2]
Kd (Cdc4^WD40 [1]): 600 ± 20 nM | fold higher potency of SCF-I2 for inhibiting Ash1^18pT290/pS294 binding (Skp1-Cdc4 complex): 10 fold | Ki (Cdc4-Skp1): ~2000 nM | fold lower potency of SCF-I2 towards full-length Sic1 (Cdc4^WD40 [2]): 10 fold
